Data on 65 sequences can be found in the supplement of paper PMC11208160.
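Further: IS621 bridge recombinase in Escherichia coli cells against a fixed T5 target plasmid.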

This data set in a line: recombinant UMI read abundance after kanamycin selection (control-corrected) (log10(CPM+1)); higher = more efficient recombination; extreme values may be limits of the assay; sequences stand for … in AGTGCAGAGAAAATCGGCCAGTTTTCTCTGCCTGCAGTCCGCATGCCGTGGGACCCCTTGGGTTCTAACCTGTTGCCTAGATTTATGCAGCGGACTGCCTTTCTCCCAAAGTGATAAACCGG…AGGTTGGTTTCACT; site = the 11-nt donor. The method, then: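 Pooled E. coli donor-specificity screen for the IS621 bridge recombinase. Each library member carries a reprogrammed 11-nt donor and a full-length LE bridge RNA expressed in cis from the natural promoter, with a paired donor-binding loop (8-nt LDG + 4-nt RDG) and a target-binding loop fixed to T5. It is co-electroporated with a T5 target plasmid; recombinase is induced with 0.07 mM IPTG and recombinants are selected on kanamycin. UMIs are counted as CPM, averaged over two biological replicates and corrected by the unselected control. Molecule = full bridge RNA written as DNA, built from the T5 scaffold: LDG = donor specificity nt 1-8, RDG = reverse complement of nt 8-11.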
As to “AACCGTCCATGGACCGGTTTTCCCGGTAATCCGTATTTGAG (site AACCGTCCTCT)”, the “recombinant UMI read abundance (log10)” value turned out to be 0.0226.

Take “AACCGTCCATGGACCGGTTTTCCCGGTAATCCGTATTTGAG (site AACCGTCCTGT)”: the “recombinant UMI read abundance (log10)” value stood at 0.

As for “AACCGTCCATGGACCGGTTTTCCCGGTAATCCGTATTTGAG (site AACCGTCCTTT)”, the “recombinant UMI read abundance (log10)” value was found to be 0.00366.

Take “AACCGTCCATGGACCGGTTTTCCCGGTAATCCGTATTTGAT (site AAACGTCCTAT)”: the “recombinant UMI read abundance (log10)” value was found to be 0.00674.

Take “AACCGTCCATGGACCGGTTTTCCCGGTAATCCGTATTTGAT (site AACAGTCCTAT)”: the “recombinant UMI read abundance (log10)” value turned out to be 0.0027.

For “AACCGTCCATGGACCGGTTTTCCCGGTAATCCGTATTTGAT (site AACCATCCTAT)”, the “recombinant UMI read abundance (log10)” value came out at 0.62.

Take “AACCGTCCATGGACCGGTTTTCCCGGTAATCCGTATTTGAT (site AACCCTCCTAT)”: the “recombinant UMI read abundance (log10)” value amounted to 0.00675.

For the sequence “AACCGTCCATGGACCGGTTTTCCCGGTAATCCGTATTTGAT (site AACCGACCTAT)”, the “recombinant UMI read abundance (log10)” value was determined as 0.

For the sequence “AACCGTCCATGGACCGGTTTTCCCGGTAATCCGTATTTGAT (site AACCGCCCTAT)”, the “recombinant UMI read abundance (log10)” value was determined as 0.00356.

Consider “AACCGTCCATGGACCGGTTTTCCCGGTAATCCGTATTTGAT (site AACCGGCCTAT)”, for which the “recombinant UMI read abundance (log10)” value was 0.00769.

Regarding “AACCGTCCATGGACCGGTTTTCCCGGTAATCCGTATTTGAT (site AACCGTACTAT)”, the “recombinant UMI read abundance (log10)” value worked out at 0.0096.

Take “AACCGTCCATGGACCGGTTTTCCCGGTAATCCGTATTTGAT (site AACCGTCCTAA)”: the “recombinant UMI read abundance (log10)” value was 0.0165.

Consider “AACCGTCCATGGACCGGTTTTCCCGGTAATCCGTATTTGAT (site AACCGTCCTAC)”, for which the “recombinant UMI read abundance (log10)” value is 0.0101.

Turning to “AACCGTCCATGGACCGGTTTTCCCGGTAATCCGTATTTGAT (site AACCGTCCTAG)”, the “recombinant UMI read abundance (log10)” value was 0.

“AACCGTCCATGGACCGGTTTTCCCGGTAATCCGTATTTGAT (site AACCGTCCTAT)”: the “recombinant UMI read abundance (log10)” value turned out to be 0.252.

As to “AACCGTCCATGGACCGGTTTTCCCGGTAATCCGTATTTGAT (site AACCGTCCTCT)”, the “recombinant UMI read abundance (log10)” value came out at 0.00582.

For “AACCGTCCATGGACCGGTTTTCCCGGTAATCCGTATTTGAT (site AACCGTCCTGT)”, the “recombinant UMI read abundance (log10)” value came out at 0.

With “AACCGTCCATGGACCGGTTTTCCCGGTAATCCGTATTTGAT (site AACCGTCCTTT)”, the “recombinant UMI read abundance (log10)” value is 0.0201.

Take “AACCGTCCATGGACCGGTTTTCCCGGTAATCCGTATTTGAT (site AACCGTGCTAT)”: the “recombinant UMI read abundance (log10)” value came to 0.0154.

On to “AACCGTCCATGGACCGGTTTTCCCGGTAATCCGTATTTGAT (site AACCGTTCTAT)”, for which the “recombinant UMI read abundance (log10)” value was 0.00303.

As for “AACCGTCCATGGACCGGTTTTCCCGGTAATCCGTATTTGAT (site AACCTTCCTAT)”, the “recombinant UMI read abundance (log10)” value came to 0.0119.

Turning to “AACCGTCCATGGACCGGTTTTCCCGGTAATCCGTATTTGAT (site AACGGTCCTAT)”, the “recombinant UMI read abundance (log10)” value was 0.00654.

“AACCGTCCATGGACCGGTTTTCCCGGTAATCCGTATTTGAT (site AACTGTCCTAT)”: the “recombinant UMI read abundance (log10)” value was found to be 0.00892.

On to “AACCGTCCATGGACCGGTTTTCCCGGTAATCCGTATTTGAT (site AAGCGTCCTAT)”, for which the “recombinant UMI read abundance (log10)” value was 0.

Turning to “AACCGTCCATGGACCGGTTTTCCCGGTAATCCGTATTTGAT (site AATCGTCCTAT)”, the “recombinant UMI read abundance (log10)” value amounted to 0.0138.

As for “AACCGTCCATGGACCGGTTTTCCCGGTAATCCGTATTTGAT (site ACCCGTCCTAT)”, the “recombinant UMI read abundance (log10)” value is 0.

“AACCGTCCATGGACCGGTTTTCCCGGTAATCCGTATTTGAT (site AGCCGTCCTAT)”: the “recombinant UMI read abundance (log10)” value came out at 0.0654.

In the case of “AACCGTCCATGGACCGGTTTTCCCGGTAATCCGTATTTGAT (site ATCCGTCCTAT)”, the “recombinant UMI read abundance (log10)” value worked out at 0.00558.

In the case of “AACCGTCCATGGACCGGTTTTCCCGGTAATCCGTATTTGAT (site CACCGTCCTAT)”, the “recombinant UMI read abundance (log10)” value turned out to be 0.00991.

Turning to “AACCGTCCATGGACCGGTTTTCCCGGTAATCCGTATTTGAT (site GACCGTCCTAT)”, the “recombinant UMI read abundance (log10)” value amounted to 0.00938.

With “AACCGTCCATGGACCGGTTTTCCCGGTAATCCGTATTTGAT (site TACCGTCCTAT)”, the “recombinant UMI read abundance (log10)” value came to 0.0405.

Turning to “AACCGTGCATGGACCGGTTTTCCCGGTAATCCGTATTTGAT (site AACCGTACTAT)”, the “recombinant UMI read abundance (log10)” value was determined as 0.902.

As for “AACCGTGCATGGACCGGTTTTCCCGGTAATCCGTATTTGAT (site AACCGTCCTAT)”, the “recombinant UMI read abundance (log10)” value turned out to be 0.0261.

In the case of “AACCGTGCATGGACCGGTTTTCCCGGTAATCCGTATTTGAT (site AACCGTGCTAT)”, the “recombinant UMI read abundance (log10)” value turned out to be 1.37.

“AACCGTGCATGGACCGGTTTTCCCGGTAATCCGTATTTGAT (site AACCGTTCTAT)”: the “recombinant UMI read abundance (log10)” value was 0.

In the case of “AACCTAGCATGGACCGGTTTTCCCGGTAATCCGTATTTGTT (site AACCTAGCTAA)”, the “recombinant UMI read abundance (log10)” value is 0.0287.

On to “AACCTAGCATGGACCGGTTTTCCCGGTAATCCGTATTTGTT (site ACCCTAGCTAA)”, for which the “recombinant UMI read abundance (log10)” value came out at 0.542.

Consider “AACCTAGCATGGACCGGTTTTCCCGGTAATCCGTATTTGTT (site AGCCTAGCTAA)”, for which the “recombinant UMI read abundance (log10)” value was found to be 0.024.

In the case of “AACCTAGCATGGACCGGTTTTCCCGGTAATCCGTATTTGTT (site ATCCTAGCTAA)”, the “recombinant UMI read abundance (log10)” value amounted to 0.0182.

Consider “AACCTCCCATGGACCGGTTTTCCCGGTAATCCGTATTTGGC (site AACCTCCCTGC)”, for which the “recombinant UMI read abundance (log10)” value amounted to 0.

For “AACCTTCCATGGACCGGTTTTCCCGGTAATCCGTATTTGCC (site AACCTTCCTGG)”, the “recombinant UMI read abundance (log10)” value is 0.

Consider “AACGAAACATGGACCGGTTTTCCCGGTAATCCGTATTTGCC (site AACGAAACTGG)”, for which the “recombinant UMI read abundance (log10)” value was 2.4.

On to “AACGGGGCATGGACCGGTTTTCCCGGTAATCCGTATTTGCG (site AACGGGGCTCG)”, for which the “recombinant UMI read abundance (log10)” value was found to be 1.19.

For the sequence “AACGGTACATGGACCGGTTTTCCCGGTAATCCGTATTTGGG (site AACGGTACTCC)”, the “recombinant UMI read abundance (log10)” value is 0.0069.

For “AACGTGTCATGGACCGGTTTTCCCGGTAATCCGTATTTGAC (site AAAGTGTCTGT)”, the “recombinant UMI read abundance (log10)” value came to 0.

Take “AACGTGTCATGGACCGGTTTTCCCGGTAATCCGTATTTGAC (site AACGTGTCTGT)”: the “recombinant UMI read abundance (log10)” value amounted to 0.

As to “AACGTGTCATGGACCGGTTTTCCCGGTAATCCGTATTTGAC (site AAGGTGTCTGT)”, the “recombinant UMI read abundance (log10)” value is 0.

As to “AACGTGTCATGGACCGGTTTTCCCGGTAATCCGTATTTGAC (site AATGTGTCTGT)”, the “recombinant UMI read abundance (log10)” value was determined as 0.

On to “AACTCAGCATGGACCGGTTTTCCCGGTAATCCGTATTTGTA (site AACTCAGCTTA)”, for which the “recombinant UMI read abundance (log10)” value came out at 1.62.

Turning to “AACTCCGCATGGACCGGTTTTCCCGGTAATCCGTATTTGAC (site AACTCCGCTGT)”, the “recombinant UMI read abundance (log10)” value is 1.92.

Consider “AACTCCTCATGGACCGGTTTTCCCGGTAATCCGTATTTGCC (site AACTCCTCTGG)”, for which the “recombinant UMI read abundance (log10)” value is 1.8.

In the case of “AACTCCTCATGGACCGGTTTTCCCGGTAATCCGTATTTGCC (site CACTCCTCTGG)”, the “recombinant UMI read abundance (log10)” value is 2.43.

On to “AACTCCTCATGGACCGGTTTTCCCGGTAATCCGTATTTGCC (site GACTCCTCTGG)”, for which the “recombinant UMI read abundance (log10)” value amounted to 1.42.

Consider “AACTCCTCATGGACCGGTTTTCCCGGTAATCCGTATTTGCC (site TACTCCTCTGG)”, for which the “recombinant UMI read abundance (log10)” value turned out to be 2.61.

“AACTCTACATGGACCGGTTTTCCCGGTAATCCGTATTTGTG (site AACTCTACTCA)”: the “recombinant UMI read abundance (log10)” value was 0.146.

Turning to “AACTGCACATGGACCGGTTTTCCCGGTAATCCGTATTTGCT (site AACTGCACTAG)”, the “recombinant UMI read abundance (log10)” value turned out to be 1.96.

Regarding “AACTTGCCATGGACCGGTTTTCCCGGTAATCCGTATTTGGC (site AACTTGCCTGC)”, the “recombinant UMI read abundance (log10)” value was found to be 0.

For “AACTTGGCATGGACCGGTTTTCCCGGTAATCCGTATTTGGA (site AACTTGGCTTC)”, the “recombinant UMI read abundance (log10)” value was found to be 0.368.

Consider “AACTTGGCATGGACCGGTTTTCCCGGTAATCCGTATTTGGA (site CACTTGGCTTC)”, for which the “recombinant UMI read abundance (log10)” value was 0.467.

With “AACTTGGCATGGACCGGTTTTCCCGGTAATCCGTATTTGGA (site GACTTGGCTTC)”, the “recombinant UMI read abundance (log10)” value was 0.439.

Regarding “AACTTGGCATGGACCGGTTTTCCCGGTAATCCGTATTTGGA (site TACTTGGCTTC)”, the “recombinant UMI read abundance (log10)” value was 0.393.

“AAGAACGCATGGACCGGTTTTCCCGGTAATCCGTATTTGGG (site AAGAACGCTCC)”: the “recombinant UMI read abundance (log10)” value was found to be 0.564.

With “AAGAACGCATGGACCGGTTTTCCCGGTAATCCGTATTTGGG (site AAGCACGCTCC)”, the “recombinant UMI read abundance (log10)” value came out at 0.0226.

As to “AAGAACGCATGGACCGGTTTTCCCGGTAATCCGTATTTGGG (site AAGGACGCTCC)”, the “recombinant UMI read abundance (log10)” value was 0.0122.

As to “AAGAACGCATGGACCGGTTTTCCCGGTAATCCGTATTTGGG (site AAGTACGCTCC)”, the “recombinant UMI read abundance (log10)” value was determined as 0.0143.
